pIC50: −log10 of the molar value.
These compounds were tested against T1, mTOR (Homo sapiens, UniProt P42345) (assay: In Vitro mTOR Kinase Assay (Echo), Test (a)(ii)). Conditions: table of enzyme assay Test (a)(ii); read-out: Test (a)(ii) IC50.
T1 construct: FLAG; made in house
Assay type: biochemical
Summary of the method: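 Enzyme: HEK293-expressed, FLAG-purified mTOR C-terminal fragment (aa 1362-2549). Rxn 2 h RT with biotinylated peptide, stopped with EDTA 50 mM/BSA/Tris pH 7.4. Detection: T389 phospho-antibody AlphaScreen, 680 nm excitation. IC50.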

T1 sequence (P42345 1362-2549): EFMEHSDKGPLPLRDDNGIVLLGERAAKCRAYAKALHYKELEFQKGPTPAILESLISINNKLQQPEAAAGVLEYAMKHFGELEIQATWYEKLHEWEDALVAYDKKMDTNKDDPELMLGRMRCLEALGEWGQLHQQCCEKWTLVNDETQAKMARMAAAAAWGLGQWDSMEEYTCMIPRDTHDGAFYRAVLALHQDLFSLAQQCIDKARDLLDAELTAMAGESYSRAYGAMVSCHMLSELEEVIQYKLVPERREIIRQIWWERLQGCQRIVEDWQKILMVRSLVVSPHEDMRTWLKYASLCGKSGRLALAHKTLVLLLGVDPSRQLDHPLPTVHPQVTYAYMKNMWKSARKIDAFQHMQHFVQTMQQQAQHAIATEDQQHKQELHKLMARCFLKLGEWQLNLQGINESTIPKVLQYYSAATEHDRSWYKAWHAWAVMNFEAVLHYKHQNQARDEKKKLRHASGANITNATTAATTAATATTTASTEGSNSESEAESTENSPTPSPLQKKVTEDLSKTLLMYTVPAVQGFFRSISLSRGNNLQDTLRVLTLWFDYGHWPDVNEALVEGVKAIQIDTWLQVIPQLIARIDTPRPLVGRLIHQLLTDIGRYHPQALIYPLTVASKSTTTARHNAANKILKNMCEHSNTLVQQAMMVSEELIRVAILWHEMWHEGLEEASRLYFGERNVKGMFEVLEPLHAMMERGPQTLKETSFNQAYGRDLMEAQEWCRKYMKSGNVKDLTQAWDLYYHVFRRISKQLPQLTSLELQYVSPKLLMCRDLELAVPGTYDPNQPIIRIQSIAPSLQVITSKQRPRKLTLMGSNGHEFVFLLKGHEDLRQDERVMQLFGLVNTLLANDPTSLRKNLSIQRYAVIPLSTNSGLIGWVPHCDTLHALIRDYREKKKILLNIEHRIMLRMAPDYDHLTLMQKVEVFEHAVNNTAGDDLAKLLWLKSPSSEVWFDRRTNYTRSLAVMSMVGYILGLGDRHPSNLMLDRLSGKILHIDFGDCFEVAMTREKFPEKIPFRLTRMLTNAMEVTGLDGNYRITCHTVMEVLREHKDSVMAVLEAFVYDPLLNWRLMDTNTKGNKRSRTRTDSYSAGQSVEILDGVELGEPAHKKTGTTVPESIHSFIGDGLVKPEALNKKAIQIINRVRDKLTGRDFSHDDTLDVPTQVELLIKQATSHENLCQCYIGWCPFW

| pIC50 | Structure (SMILES) |
| --- | --- |
| 7.84 | C[C@H]1COCCN1c1cc(C2(S(=O)(=O)c3ccc(F)cc3)CC2)nc(-c2ccc(NC(=O)Nc3cnn(C)c3)nc2)n1 [Example 14m, 1-[5-[4-[1-(4-fluorophenyl)sulfonylcyclopro-pyl]-6-[(3S)-3-methylmorpholin-4-yl]pyrimidin-2-yl]pyridin-2-yl]-3-(1-methylpyrazol-4-yl)urea] |
| 7.44 | C[C@H]1COCCN1c1cc(C2(S(C)(=O)=O)CCCC2)nc(-c2ccc(NC(=O)NC3CC3)nc2)n1 [Example 14n, 3-cyclopropyl-1-[5-[4-[(3S)-3-methylmorpholin-4-yl]-6-(1-methylsulfonylcyclopentyl)pyri-midin-2-yl]pyridin-2-yl]urea] |
| 7.66 | CNC(=O)Nc1ccc(-c2nc(N3CCOC[C@@H]3C)cc(C3(S(C)(=O)=O)CCCC3)n2)cn1 [Example 14o, 3-methyl-1-[5-[4-[(3S)-3-methylmorpholin-4-yl]-6-(1-methylsulfonylcyclopentyl)pyri-midin-2-yl]pyridin-2-yl]urea] |
| 6.27 | C[C@H]1COCCN1c1cc(C2(S(C)(=O)=O)CCCC2)nc(-c2ccc(NC(=O)NCCN(C)C)nc2)n1 [Example 14p, 3-(2-dimethylaminoethyl)-1-[5-[4-[(3S)-3-methylmorpholin-4-yl]-6-(1-methylsulfonylcyclopentyl)pyri-midin-2-yl]pyridin-2-yl]urea] |
| 7.58 | C[C@H]1COCCN1c1cc(C2(S(C)(=O)=O)CCCC2)nc(-c2ccc(NC(=O)NCCO)nc2)n1 [Example 14q, 3-(2-hydroxyethyl)-1-[5-[4-[(3S)-3-methylmorpholin-4-yl]-6-(1-methylsulfonylcyclopentyl)pyri-midin-2-yl]pyridin-2-yl]urea] |
| 7.99 | C[C@H]1COCCN1c1cc(C2(S(C)(=O)=O)CCCC2)nc(-c2ccc(NC(=O)Nc3cnn(C)c3)nc2)n1 [Example 14r, 1-[5-[4-[(3S)-3-methylmorpholin-4-yl]-6-(1-methylsulfonylcyclopentyl)pyri-midin-2-yl]pyridin-2-yl]-3-(1-methylpyrazol-4-yl)urea] |
| 6.91 | C[C@H]1COCCN1c1cc(C2(S(C)(=O)=O)CCCC2)nc(-c2cnc(NC(=O)NC3CC3)nc2)n1 [Example 14s, 3-cyclopropyl-1-[5-[4-[(3S)-3-methylmorpholin-4-yl]-6-(1-methylsulfonylcyclopentyl)pyri-midin-2-yl]pyrimidin-2-yl]urea] |
| 6.71 | CNC(=O)Nc1ncc(-c2nc(N3CCOC[C@@H]3C)cc(C3(S(C)(=O)=O)CCCC3)n2)cn1 [Example 14t, 3-methyl-1-[5-[4-[(3S)-3-methylmorpholin-4-yl]-6-(1-methylsulfonylcyclopentyl)pyri-midin-2-yl]pyrimidin-2-yl]urea] |
| 6.91 | C[C@H]1COCCN1c1cc(C2(S(C)(=O)=O)CCCC2)nc(-c2cnc(NC(=O)NCCO)nc2)n1 [Example 14u, 3-(2-hydroxyethyl)-1-[5-[4-[(3S)-3-methylmorpholin-4-yl]-6-(1-methylsulfonylcyclopentyl)pyri-midin-2-yl]pyrimidin-2-yl]urea] |
| 7.08 | C[C@H]1COCCN1c1cc(C2(S(C)(=O)=O)CCCC2)nc(-c2cnc(NC(=O)Nc3cnn(C)c3)nc2)n1 [Example 14v, 1-[5-[4-[(3S)-3-methylmorpholin-4-yl]-6-(1-methylsulfonylcyclopentyl)pyri-midin-2-yl]pyrimidin-2-yl]-3-(1-methylpyrazol-4-yl)urea] |
| 6.68 | C[C@H]1COCCN1c1cc(C2(S(=O)(=O)C3CC3)CC2)nc(-c2cnc(NC(=O)NC3CC3)nc2)n1 [Example 14w, 3-cyclopropyl-1-[5-[4-(1-cyclopropylsulfonylcyclopropyl)-6-[(3S)-3-methylmorpholin-4-yl]pyrimidin-2-yl]pyrimidin-2-yl]urea] |
| 6.20 | CNC(=O)Nc1ncc(-c2nc(N3CCOC[C@@H]3C)cc(C3(S(=O)(=O)C4CC4)CC3)n2)cn1 [Example 14x, 1-[5-[4-(1-cyclopropylsulfonylcyclopropyl)-6-[(3S)-3-methylmorpholin-4-yl]pyrimidin-2-yl]pyrimidin-2-yl]-3-methylurea] |
| 6.82 | C[C@H]1COCCN1c1cc(C2(S(=O)(=O)C3CC3)CC2)nc(-c2cnc(NC(=O)NCCO)nc2)n1 [Example 14y, 1-[5-[4-(1-cyclopropylsulfonylcyclopropyl)-6-[(3S)-3-methylmorpholin-4-yl]pyrimidin-2-yl]pyrimidin-2-yl]-3-(2-hydroxyethyl)urea] |
| 6.77 | C[C@H]1COCCN1c1cc(C2(S(=O)(=O)C3CC3)CC2)nc(-c2cnc(NC(=O)Nc3cnn(C)c3)nc2)n1 [Example 14z, 1-[5-[4-(1-cyclopropylsulfonylcyclopropyl)-6-[(3S)-3-methylmorpholin-4-yl]pyrimidin-2-yl]pyrimidin-2-yl]-3-(1-methylpyrazol-4-yl)urea] |
| 8.81 | C[C@H]1COCCN1c1cc(C2(S(=O)(=O)CCO)CC2)nc(-c2ccc(NC(=O)NC3CC3)cc2)n1 [Example 15, 3-Cyclopropyl-1-[4-[4-[1-(2-hydroxyethylsulfonyl)cyclopropyl]-6-[(3S)-3-methylmorpholin-4-yl]pyrimidin-2-yl]phenyl]urea] |
| 9.23 | CCNC(=O)Nc1ccc(-c2nc(N3CCOC[C@@H]3C)cc(C3(S(=O)(=O)CCO)CC3)n2)cc1 [Example 15a, 3-ethyl-1-[4-[4-[1-(2-hydroxyethylsulfonyl)cyclopropyl]-6-[(3S)-3-methylmorpholin-4-yl]pyrimidin-2-yl]phenyl]urea] |
| 8.85 | CNC(=O)Nc1ccc(-c2nc(N3CCOC[C@@H]3C)cc(C3(S(=O)(=O)CCO)CC3)n2)cc1 [Example 16, 1-[4-[4-[1-(2-Hydroxyethylsulfonyl)cyclopropyl]-6-[(3S)-3-methylmorpholin-4-yl]pyrimidin-2-yl]phenyl]-3-methylurea] |
| 8.00 | C[C@H]1COCCN1c1cc(C2(S(=O)(=O)CCO)CC2)nc(-c2ccc(NC(=O)NC3CCC3)cc2)n1 [Example 16a, 3-cyclobutyl-1-[4-[4-[1-(2-hydroxyethylsulfonyl)cyclopropyl]-6-[(3S)-3-methylmorpholin-4-yl]pyrimidin-2-yl]phenyl]urea] |
| 8.24 | C[C@H]1COCCN1c1cc(C2(S(=O)(=O)CCO)CC2)nc(-c2ccc(NC(=O)NCCO)cc2)n1 [Example 16b, 3-(2-hydroxyethyl)-1-[4-[4-[1-(2-hydroxyethylsulfonyl)cyclopropyl]-6-[(3S)-3-methylmorpholin-4-yl]pyrimidin-2-yl]phenyl]urea] |
| 8.80 | C[C@H]1COCCN1c1cc(C2(S(=O)(=O)CCO)CC2)nc(-c2ccc(NC(=O)Nc3ncns3)cc2)n1 [Example 16c, 1-[4-[4-[1-(2-hydroxyethylsulfonyl)cyclopropyl]-6-[(3S)-3-methylmorpholin-4-yl]pyrimidin-2-yl]phenyl]-3-(1,2,4-thiadiazol-5-yl)urea] |
| 8.44 | C[C@H]1COCCN1c1cc(C2(S(=O)(=O)CCO)CC2)nc(-c2ccc(NC(=O)Nc3cnn(C)c3)cc2)n1 [Example 16d, 1-[4-[4-[1-(2-hydroxyethylsulfonyl)cyclopropyl]-6-[(3S)-3-methylmorpholin-4-yl]pyrimidin-2-yl]phenyl]-3-(1-methylpyrazol-4-yl)urea] |
| 7.67 | CCCNC(=O)Nc1ccc(-c2nc(N3CCOC[C@@H]3C)cc(C3(S(=O)(=O)CCO)CC3)n2)cc1 [Example 16e, 3-[4-[4-[1-(2-hydroxyethylsulfonyl)cyclopropyl]-6-[(3S)-3-methylmorpholin-4-yl]pyrimidin-2-yl]phenyl]-1-propylurea] |
| 7.67 | C[C@H]1COCCN1c1cc(C2(S(=O)(=O)CCO)CC2)nc(-c2ccc(NC(=O)NCCCO)cc2)n1 [Example 16f, 1-[4-[4-[1-(2-hydroxyethylsulfonyl)cyclopropyl]-6-[(3S)-3-methylmorpholin-4-yl]pyrimidin-2-yl]phenyl]-3-(3-hydroxypropyl)urea] |
| 7.75 | C[C@H]1COCCN1c1cc(C2(S(=O)(=O)CCO)CC2)nc(-c2ccc(NC(=O)NCCC#N)cc2)n1 [Example 16g, 3-(2-cyanoethyl)-1-[4-[4-[1-(2-hydroxyethylsulfonyl)cyclopropyl]-6-[(3S)-3-methylmorpholin-4-yl]pyrimidin-2-yl]phenyl]urea] |
| 6.73 | C[C@H]1COCCN1c1cc(C2(S(=O)(=O)CCO)CC2)nc(-c2ccc(NC(=O)NCc3ncc[nH]3)cc2)n1 [Example 16h, 1-[4-[4-[1-(2-hydroxyethylsulfonyl)cyclopropyl]-6-[(3S)-3-methylmorpholin-4-yl]pyrimidin-2-yl]phenyl]-3-(1H-imidazol-2-ylmethyl)urea] |
| 6.07 | C[C@H]1COCCN1c1cc(C2(S(=O)(=O)CCO)CC2)nc(-c2ccc(NC(=O)NC3(CO)CC3)cc2)n1 [Example 16i, 1-[4-[4-[1-(2-hydroxyethylsulfonyl)cyclopropyl]-6-[(3S)-3-methylmorpholin-4-yl]pyrimidin-2-yl]phenyl]-3-[1-(hydroxymethyl)cyclopropyl]urea] |
| 8.94 | C[C@H]1COCCN1c1cc(C2(S(=O)(=O)c3cncc(F)c3)CC2)nc(-c2ccc(NC(=O)NCCO)cc2)n1 [Example 17, 1-[4-[4-[1-(5-Fluoropyridin-3-yl)sulfonylcyclopropyl]-6-[(3S)-3-methylmorpholin-4-yl]pyrimidin-2-yl]phenyl]-3-(2-hydroxyethyl)urea] |
| 9.03 | CCNC(=O)Nc1ccc(-c2nc(N3CCOC[C@@H]3C)cc(C3(S(=O)(=O)c4cncc(F)c4)CC3)n2)cc1 [Example 17a, 3-ethyl-1-[4-[4-[1-(5-fluoropyridin-3-yl)sulfonylcyclopropyl]-6-[(3S)-3-methylmorpholin-4-yl]pyrimidin-2-yl]phenyl]urea] |
| 9.23 | CNC(=O)Nc1ccc(-c2nc(N3CCOC[C@@H]3C)cc(C3(S(=O)(=O)c4cncc(F)c4)CC3)n2)cc1 [Example 17b, 1-[4-[4-[1-(5-fluoropyridin-3-yl)sulfonylcyclopropyl]-6-[(3S)-3-methylmorpholin-4-yl]pyrimidin-2-yl]phenyl]-3-methylurea] |
